From ChEMBL document CHEMBL1795227, “Methanesulfonamido-cyclohexylamine derivatives of 2,4-diaminopyrimidine as potent ALK inhibitors” (Bioorg Med Chem Lett, 2011)

These compounds were tested against T1, ALK tyrosine kinase receptor (Homo sapiens, UniProt Q9UM73) (assay: Inhibition of ALK).
Target sequence in this assay (Q9UM73 whole entry): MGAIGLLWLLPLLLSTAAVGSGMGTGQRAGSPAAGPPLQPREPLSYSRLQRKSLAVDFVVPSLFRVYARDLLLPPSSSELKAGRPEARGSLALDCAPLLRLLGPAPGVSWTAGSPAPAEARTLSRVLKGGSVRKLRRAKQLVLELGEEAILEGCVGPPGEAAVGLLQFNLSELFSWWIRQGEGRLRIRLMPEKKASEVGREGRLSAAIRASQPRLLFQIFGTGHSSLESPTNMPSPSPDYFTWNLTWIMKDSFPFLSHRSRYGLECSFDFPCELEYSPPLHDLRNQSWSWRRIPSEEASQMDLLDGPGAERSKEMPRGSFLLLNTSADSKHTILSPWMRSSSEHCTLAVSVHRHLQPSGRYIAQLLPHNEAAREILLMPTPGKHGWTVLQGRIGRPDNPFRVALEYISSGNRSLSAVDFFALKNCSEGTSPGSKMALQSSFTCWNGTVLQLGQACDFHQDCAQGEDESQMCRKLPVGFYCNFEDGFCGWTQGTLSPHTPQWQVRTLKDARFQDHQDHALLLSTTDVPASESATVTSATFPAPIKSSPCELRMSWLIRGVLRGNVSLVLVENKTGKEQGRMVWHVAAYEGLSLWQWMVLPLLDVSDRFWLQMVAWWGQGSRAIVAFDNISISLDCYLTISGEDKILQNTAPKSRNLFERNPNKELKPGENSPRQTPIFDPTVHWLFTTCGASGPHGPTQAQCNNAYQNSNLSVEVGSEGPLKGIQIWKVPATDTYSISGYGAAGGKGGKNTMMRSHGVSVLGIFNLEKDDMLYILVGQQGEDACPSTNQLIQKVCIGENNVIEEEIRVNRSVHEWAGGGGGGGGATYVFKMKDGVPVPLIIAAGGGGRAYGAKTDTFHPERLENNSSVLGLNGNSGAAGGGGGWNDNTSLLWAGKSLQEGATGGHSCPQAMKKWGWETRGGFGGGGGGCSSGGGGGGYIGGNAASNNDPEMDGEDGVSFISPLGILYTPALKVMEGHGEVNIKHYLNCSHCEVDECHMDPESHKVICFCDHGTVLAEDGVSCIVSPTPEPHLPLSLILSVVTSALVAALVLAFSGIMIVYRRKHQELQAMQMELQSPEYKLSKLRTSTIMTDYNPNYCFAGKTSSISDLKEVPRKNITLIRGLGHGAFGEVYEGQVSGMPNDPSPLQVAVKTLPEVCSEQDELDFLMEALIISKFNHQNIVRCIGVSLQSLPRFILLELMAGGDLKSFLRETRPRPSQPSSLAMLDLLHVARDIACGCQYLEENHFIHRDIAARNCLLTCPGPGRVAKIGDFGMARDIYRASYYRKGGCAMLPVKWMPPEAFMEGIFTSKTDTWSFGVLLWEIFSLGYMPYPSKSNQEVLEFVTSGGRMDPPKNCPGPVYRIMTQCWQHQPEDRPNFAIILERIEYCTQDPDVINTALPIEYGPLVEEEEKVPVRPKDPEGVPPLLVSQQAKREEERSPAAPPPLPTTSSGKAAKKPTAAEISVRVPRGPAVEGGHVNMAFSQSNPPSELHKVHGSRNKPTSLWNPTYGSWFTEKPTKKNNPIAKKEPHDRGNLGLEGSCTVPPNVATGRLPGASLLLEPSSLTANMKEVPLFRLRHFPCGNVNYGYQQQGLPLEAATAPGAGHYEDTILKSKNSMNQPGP

IC50	Compound
9 nM	COCCN1CCc2ccc(Nc3ncc(Cl)c(N[C@@H]4CCCC[C@H]4NS(C)(=O)=O)n3)cc2CC1
110 nM	COCCN1CCc2ccc(Nc3ncc(Cl)c(N[C@@H]4CCCC[C@H]4NS(=O)(=O)C4CC4)n3)cc2CC1
50 nM	CCS(=O)(=O)N[C@@H]1CCCC[C@H]1Nc1nc(Nc2ccc3c(c2)CCN(CCOC)CC3)ncc1Cl
680 nM	COCCN1CCc2ccc(Nc3ncc(Cl)c(N[C@@H]4CCCC[C@H]4N)n3)cc2CC1
31 nM	COCCN1CCc2ccc(Nc3ncc(Cl)c(N[C@@H]4CCCC[C@H]4NS(=O)(=O)CC(F)(F)F)n3)cc2CC1
> 3000 nM	COCCN1CCc2ccc(Nc3ncc(Cl)c(N[C@@H]4CCCC[C@H]4O)n3)cc2CC1 (racemic)
9 nM	CCN1CCc2ccc(Nc3ncc(Cl)c(N[C@@H]4CCCC[C@H]4NS(C)(=O)=O)n3)cc2CC1
22 nM	COCCN1CCc2ccc(Nc3ncc(Cl)c(N[C@@H]4CCCC[C@H]4NC(=O)C(F)(F)F)n3)cc2CC1
130 nM	COCCN1CCc2ccc(Nc3ncc(Cl)c(N[C@@H]4CCCC[C@H]4NS(=O)(=O)C(C)C)n3)cc2CC1
> 3000 nM	COCCN1CCc2ccc(Nc3ncc(Cl)c(N[C@@H]4CCC[C@H](NS(C)(=O)=O)C4)n3)cc2CC1 (racemic)

Further lines, the compound ahead of its results:

Compound	IC50
COCCN1CCc2ccc(Nc3ncc(Cl)c(NC4CCCCC4)n3)cc2CC1	78 nM
COCCN1CCc2ccc(Nc3ncc(Cl)c(N[C@@H]4CCC[C@@H](NS(C)(=O)=O)C4)n3)cc2CC1 (racemic)	> 3000 nM
COc1cc(N2CCOCC2)ccc1Nc1ncc(Cl)c(N[C@H]2CCCC[C@@H]2NS(C)(=O)=O)n1	> 10000 nM
CCN([C@@H]1CCCC[C@H]1Nc1nc(Nc2cc3c(cc2OC)CCN(CCOC)CC3)ncc1Cl)S(C)(=O)=O	20 nM
CCN1CCc2ccc(Nc3ncc(Cl)c(N[C@@H]4CCCC[C@H]4NC(C)=O)n3)cc2CC1	9 nM
COCCN1CCc2ccc(Nc3ncc(Cl)c(N[C@H]4CC[C@H](NS(C)(=O)=O)CC4)n3)cc2CC1	100 nM
COc1cc(N2CCOCC2)ccc1Nc1ncc(Cl)c(N[C@@H]2CCCC[C@@H]2NS(C)(=O)=O)n1 (racemic)	330 nM
CCN1CCc2ccc(Nc3ncc(Cl)c(N[C@@H]4CCCC[C@H]4NC(=O)N(C)C)n3)cc2CC1	370 nM
CCN1CCc2ccc(Nc3ncc(Cl)c(N[C@@H]4CCCC[C@H]4NC(=O)C(F)(F)F)n3)cc2CC1	26 nM
COc1cc(N2CCOCC2)ccc1Nc1ncc(Cl)c(N[C@@H]2CCCC[C@H]2NS(C)(=O)=O)n1	10 nM
COCCN1CCc2ccc(Nc3ncc(Cl)c(N[C@H]4CC[C@@H](NS(C)(=O)=O)CC4)n3)cc2CC1	220 nM

The compounds below were run against Insulin receptor (Homo sapiens, UniProt P06213) (assay: Inhibition of IR).
Sequence of Insulin receptor (P06213 28-758 limits assumed): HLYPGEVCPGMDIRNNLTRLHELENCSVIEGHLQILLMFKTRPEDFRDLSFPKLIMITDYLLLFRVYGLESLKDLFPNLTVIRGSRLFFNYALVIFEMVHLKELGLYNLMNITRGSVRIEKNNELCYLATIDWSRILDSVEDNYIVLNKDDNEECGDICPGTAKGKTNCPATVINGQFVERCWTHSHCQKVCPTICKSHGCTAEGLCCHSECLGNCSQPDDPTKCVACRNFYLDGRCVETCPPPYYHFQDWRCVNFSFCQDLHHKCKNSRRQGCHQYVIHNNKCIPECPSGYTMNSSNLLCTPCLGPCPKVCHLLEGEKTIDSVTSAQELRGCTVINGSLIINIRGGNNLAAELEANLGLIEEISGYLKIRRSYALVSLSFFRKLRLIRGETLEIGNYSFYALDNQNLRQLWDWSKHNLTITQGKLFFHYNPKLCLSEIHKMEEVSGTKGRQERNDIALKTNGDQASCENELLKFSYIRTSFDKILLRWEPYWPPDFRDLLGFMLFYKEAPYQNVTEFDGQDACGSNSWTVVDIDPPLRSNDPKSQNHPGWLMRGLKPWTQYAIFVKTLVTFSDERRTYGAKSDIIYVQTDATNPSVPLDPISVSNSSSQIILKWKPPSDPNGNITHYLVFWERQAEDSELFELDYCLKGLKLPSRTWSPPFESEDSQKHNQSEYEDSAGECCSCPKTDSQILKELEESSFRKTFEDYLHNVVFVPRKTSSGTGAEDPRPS
Sequence of Insulin receptor (P06213 763-1382 limits assumed): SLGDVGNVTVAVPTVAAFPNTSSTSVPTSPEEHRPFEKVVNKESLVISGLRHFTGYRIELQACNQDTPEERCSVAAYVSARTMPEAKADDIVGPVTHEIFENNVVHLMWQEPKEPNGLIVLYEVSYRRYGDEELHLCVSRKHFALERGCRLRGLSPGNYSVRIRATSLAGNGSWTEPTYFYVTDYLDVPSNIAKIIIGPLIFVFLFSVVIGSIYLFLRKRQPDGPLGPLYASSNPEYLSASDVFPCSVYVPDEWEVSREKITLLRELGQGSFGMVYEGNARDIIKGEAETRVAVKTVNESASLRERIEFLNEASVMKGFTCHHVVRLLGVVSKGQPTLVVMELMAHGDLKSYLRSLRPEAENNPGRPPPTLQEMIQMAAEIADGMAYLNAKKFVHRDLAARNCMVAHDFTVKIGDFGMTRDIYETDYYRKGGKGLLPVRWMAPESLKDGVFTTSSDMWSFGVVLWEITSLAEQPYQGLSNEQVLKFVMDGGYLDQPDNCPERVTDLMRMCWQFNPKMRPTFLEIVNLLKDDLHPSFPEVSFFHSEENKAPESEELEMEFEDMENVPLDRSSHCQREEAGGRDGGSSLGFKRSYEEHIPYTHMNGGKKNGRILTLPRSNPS

IC50	Compound
540 nM	COCCN1CCc2ccc(Nc3ncc(Cl)c(N[C@@H]4CCCC[C@H]4NS(C)(=O)=O)n3)cc2CC1
930 nM	CCS(=O)(=O)N[C@@H]1CCCC[C@H]1Nc1nc(Nc2ccc3c(c2)CCN(CCOC)CC3)ncc1Cl
840 nM	COCCN1CCc2ccc(Nc3ncc(Cl)c(N[C@@H]4CCCC[C@H]4NS(=O)(=O)CC(F)(F)F)n3)cc2CC1
920 nM	CCN1CCc2ccc(Nc3ncc(Cl)c(N[C@@H]4CCCC[C@H]4NS(C)(=O)=O)n3)cc2CC1
710 nM	COCCN1CCc2ccc(Nc3ncc(Cl)c(N[C@@H]4CCCC[C@H]4NC(=O)C(F)(F)F)n3)cc2CC1

Second part, the compound before the results:

Compound	IC50
COCCN1CCc2ccc(Nc3ncc(Cl)c(NC4CCCCC4)n3)cc2CC1	77 nM
COc1cc(N2CCOCC2)ccc1Nc1ncc(Cl)c(N[C@H]2CCCC[C@@H]2NS(C)(=O)=O)n1	6300 nM
CCN([C@@H]1CCCC[C@H]1Nc1nc(Nc2cc3c(cc2OC)CCN(CCOC)CC3)ncc1Cl)S(C)(=O)=O	430 nM
CCN1CCc2ccc(Nc3ncc(Cl)c(N[C@@H]4CCCC[C@H]4NC(C)=O)n3)cc2CC1	150 nM
COc1cc(N2CCOCC2)ccc1Nc1ncc(Cl)c(N[C@@H]2CCCC[C@@H]2NS(C)(=O)=O)n1 (racemic)	180 nM
CCN1CCc2ccc(Nc3ncc(Cl)c(N[C@@H]4CCCC[C@H]4NC(=O)N(C)C)n3)cc2CC1	150 nM
CCN1CCc2ccc(Nc3ncc(Cl)c(N[C@@H]4CCCC[C@H]4NC(=O)C(F)(F)F)n3)cc2CC1	740 nM
COc1cc(N2CCOCC2)ccc1Nc1ncc(Cl)c(N[C@@H]2CCCC[C@H]2NS(C)(=O)=O)n1	1700 nM

What follows are compounds tested against T1, ALK tyrosine kinase receptor (assay: Inhibition of autophosphorylation of NPM-ALK in human Karpas-299 cells).
Format: cell-based
Target sequence in this assay (Q9UM73 19-1620 limits assumed): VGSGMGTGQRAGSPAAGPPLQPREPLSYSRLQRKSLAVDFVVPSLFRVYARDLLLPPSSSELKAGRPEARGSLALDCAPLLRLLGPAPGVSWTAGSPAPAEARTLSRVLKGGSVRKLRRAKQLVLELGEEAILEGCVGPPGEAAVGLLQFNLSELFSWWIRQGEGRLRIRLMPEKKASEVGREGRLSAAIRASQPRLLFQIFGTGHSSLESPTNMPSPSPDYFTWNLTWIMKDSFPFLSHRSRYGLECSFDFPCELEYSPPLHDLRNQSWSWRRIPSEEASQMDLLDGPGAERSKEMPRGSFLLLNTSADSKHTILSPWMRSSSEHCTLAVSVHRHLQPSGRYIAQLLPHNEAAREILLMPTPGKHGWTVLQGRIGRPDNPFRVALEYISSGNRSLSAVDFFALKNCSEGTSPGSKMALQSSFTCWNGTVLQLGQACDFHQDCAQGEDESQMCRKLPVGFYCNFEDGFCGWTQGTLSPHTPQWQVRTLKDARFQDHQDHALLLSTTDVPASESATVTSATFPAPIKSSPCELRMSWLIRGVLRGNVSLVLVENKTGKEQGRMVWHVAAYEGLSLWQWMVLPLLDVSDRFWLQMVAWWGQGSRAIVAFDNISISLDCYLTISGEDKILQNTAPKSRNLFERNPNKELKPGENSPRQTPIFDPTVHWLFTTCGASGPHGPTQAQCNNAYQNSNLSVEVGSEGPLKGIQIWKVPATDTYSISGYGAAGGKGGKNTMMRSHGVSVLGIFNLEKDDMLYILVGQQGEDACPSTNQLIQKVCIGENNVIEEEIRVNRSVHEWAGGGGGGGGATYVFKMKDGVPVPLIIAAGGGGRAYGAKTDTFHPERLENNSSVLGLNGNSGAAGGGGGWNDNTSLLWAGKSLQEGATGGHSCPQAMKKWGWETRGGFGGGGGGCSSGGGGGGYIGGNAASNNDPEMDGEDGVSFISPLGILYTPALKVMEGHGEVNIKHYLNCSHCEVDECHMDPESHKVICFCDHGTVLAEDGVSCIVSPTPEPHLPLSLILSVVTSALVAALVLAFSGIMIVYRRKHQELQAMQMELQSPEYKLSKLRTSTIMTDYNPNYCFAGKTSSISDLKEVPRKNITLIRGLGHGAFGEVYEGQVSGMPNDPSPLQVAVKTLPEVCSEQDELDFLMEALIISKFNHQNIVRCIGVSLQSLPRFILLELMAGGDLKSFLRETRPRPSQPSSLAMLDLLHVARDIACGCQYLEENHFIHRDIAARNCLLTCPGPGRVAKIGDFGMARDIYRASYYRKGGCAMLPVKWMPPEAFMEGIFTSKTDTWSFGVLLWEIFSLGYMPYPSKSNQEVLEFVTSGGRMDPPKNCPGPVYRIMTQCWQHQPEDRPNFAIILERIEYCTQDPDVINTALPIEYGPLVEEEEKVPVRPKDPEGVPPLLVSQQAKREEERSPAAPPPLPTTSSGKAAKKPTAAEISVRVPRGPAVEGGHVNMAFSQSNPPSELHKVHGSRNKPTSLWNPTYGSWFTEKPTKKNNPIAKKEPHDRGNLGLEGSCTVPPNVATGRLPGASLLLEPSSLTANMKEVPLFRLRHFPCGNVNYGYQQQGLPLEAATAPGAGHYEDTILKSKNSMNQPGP

IC50	Compound
73 nM	COCCN1CCc2ccc(Nc3ncc(Cl)c(N[C@@H]4CCCC[C@H]4NS(C)(=O)=O)n3)cc2CC1
300 nM	COCCN1CCc2ccc(Nc3ncc(Cl)c(N[C@@H]4CCCC[C@H]4NS(=O)(=O)CC(F)(F)F)n3)cc2CC1
60 nM	CCN1CCc2ccc(Nc3ncc(Cl)c(N[C@@H]4CCCC[C@H]4NS(C)(=O)=O)n3)cc2CC1
100 nM	COCCN1CCc2ccc(Nc3ncc(Cl)c(N[C@@H]4CCCC[C@H]4NC(=O)C(F)(F)F)n3)cc2CC1

Further lines, the compound ahead of its results:

Compound	IC50
CCN([C@@H]1CCCC[C@H]1Nc1nc(Nc2cc3c(cc2OC)CCN(CCOC)CC3)ncc1Cl)S(C)(=O)=O	150 nM
CCN1CCc2ccc(Nc3ncc(Cl)c(N[C@@H]4CCCC[C@H]4NC(C)=O)n3)cc2CC1	65 nM
CCN1CCc2ccc(Nc3ncc(Cl)c(N[C@@H]4CCCC[C@H]4NC(=O)C(F)(F)F)n3)cc2CC1	200 nM
COc1cc(N2CCOCC2)ccc1Nc1ncc(Cl)c(N[C@@H]2CCCC[C@H]2NS(C)(=O)=O)n1	65 nM
